The text below walks through data of ChEMBL document CHEMBL4152293, “Synthesis and biological evaluation of podophyllotoxin derivatives as selective antitumor agents” (Eur J Med Chem, 2018).

Activity calls are given as the source filed them. The rule behind the calls is not given here. Some results are limits rather than exact numbers.

The subject of series [1] is A549. The series is described as follows: Cytotoxicity against human A549 cells assessed as growth inhibition after 72 hrs by MTT assay. The following applies: A549, 72 h. The series is classed as functional, cell-based. In general terms: Tetrazolium assays rely on reduction of a dye to a coloured formazan, in cell work by metabolically active cells.
Series [2] relates to A549. The series is described as follows: Potency index, ratio of VP-16 IC50 to test compound IC50 for human A549 cells. The series is classed as functional.
Series [3] concerns L02. The series is described as follows: Cytotoxicity against human L02 cells assessed as growth inhibition after 72 hrs by MTT assay. The series is classed as cell-based. To be noted: L02, 72 h.
For series [4], the system named is A549. The series is described as follows: Potency index, ratio of doxorubicin IC50 to test compound IC50 for human A549 cells. The series is classed as functional.
The subject of series [5] is HepG2. The series is described as follows: Cytotoxicity against human HepG2 cells assessed as growth inhibition after 72 hrs by MTT assay. Type of series: functional, cell-based. The following applies: HepG2, 72 h.
Series [6] deals with MCF7. Nature of the series: Cytotoxicity against human MCF7 cells assessed as growth inhibition after 72 hrs by MTT assay. The following applies: MCF7, 72 h. Type of series: functional, cell-based.
A short description of series [7]: Selectivity index, ratio of IC50 for human L02 cells to IC50 for human A549 cells. The series is classed as toxicity. To be noted: L02 cells versus A549 cells, read-out: Ratio IC50.
The test system of series [8] is MCF7. The series is described as follows: Potency index, ratio of VP-16 IC50 to test compound IC50 for human MCF7 cells. The series is classed as functional.
Series [9] has as its system MCF7. Nature of the series: Potency index, ratio of doxorubicin IC50 to test compound IC50 for human MCF7 cells. Type of series: functional.
Series [10] concerns L02. Nature of the series: Induction of apoptosis in human L02 cells assessed as decrease in cell number at 10 to 30 nM after 72 hrs by DAPI staining-based fluorescence microscopic method. To be noted: l02, 72 h, 0.03 µM.
In series [11] the test system is L02. Nature of the series: Induction of apoptosis in human L02 cells assessed as nuclear fragmentation at 10 to 30 nM after 72 hrs by DAPI staining-based fluorescence microscopic method. The following applies: l02, 72 h, 0.03 µM. The series is classed as cell-based.
For series [12], the system named is A549. The series is described as follows: Induction of morphological changes in human A549 cells assessed as irregular shape at 10 to 30 nM after 72 hrs by DAPI staining-based fluorescence microscopic method. The series is classed as functional, cell-based.
The subject of series [13] is L02. The series is described as follows: Induction of morphological changes in human L02 cells assessed as irregular shape at 10 to 30 nM after 72 hrs by DAPI staining-based fluorescence microscopic method. Type of series: cell-based. The following applies: l02, 72 h, 0.03 µM.
Series [14] relates to A549. Nature of the series: Induction of apoptosis in human A549 cells assessed as decrease in cell number at 10 to 30 nM after 72 hrs by DAPI staining-based fluorescence microscopic method. The series is classed as functional.
Series [15] relates to A549. Nature of the series: Induction of apoptosis in human A549 cells assessed as nuclear fragmentation at 10 to 30 nM after 72 hrs by DAPI staining-based fluorescence microscopic method. Type of series: functional, cell-based.
Series [16] concerns HepG2. Nature of the series: Potency index, ratio of doxorubicin IC50 to test compound IC50 for human HepG2 cells. Type of series: functional.
Series [17] has as its system HepG2. Nature of the series: Potency index, ratio of VP-16 IC50 to test compound IC50 for human HepG2 cells. The series is classed as functional.

For orientation: IC50 means the concentration needed to halve the response being measured. With `COc1cc([C@@H]2c3cc4c(cc3[C@H](OC(=O)CNC(=O)OC(C)(C)C)[C@H]3COC(=O)[C@H]23)OCO4)cc(OC)c1OC`, the IC50 in the series on A549 [1] came to 1.6 nM; in the series on L02 [3], 7.3 nM; with HepG2 [5] it was 26.6 nM; with MCF7 [6], 11.3 nM. For the same compound, the “Ratio IC50” value in the series with A549 [2] is 5900; in the series on A549 [4], 140.

Take `COc1cc([C@@H]2c3cc4c(cc3[C@H](OC(=O)[C@H](Cc3ccccc3)NC(=O)c3nc(C)c(C)nc3C)[C@H]3COC(=O)[C@H]23)OCO4)cc(OC)c1OC`: the IC50 in the series with A549 [1] is 8.1 nM; with L02 [3], 12 nM; in the series with HepG2 [5], 24.5 nM; in the series with MCF7 [6] it was 11.3 nM.

For `CC[C@H](C)[C@H](N)C(=O)O[C@H]1c2cc3c(cc2[C@@H](c2cc(OC)c(OC)c(OC)c2)[C@H]2C(=O)OC[C@@H]21)OCO3`, the IC50 with A549 [1] came out at 19.2 nM; with L02 [3] it was 11.1 nM; in the series with HepG2 [5], 22.5 nM; in the series on MCF7 [6], 17.3 nM.

For the compound `CC[C@H](C)[C@H](NC(=O)OC(C)(C)C)C(=O)O[C@H]1c2cc3c(cc2[C@@H](c2cc(OC)c(OC)c(OC)c2)[C@H]2C(=O)OC[C@@H]21)OCO3`, the IC50 in the series on A549 [1] is 223 nM; in the series on L02 [3], 1120 nM; in the series with HepG2 [5], 690 nM; in the series on MCF7 [6], 626 nM.

As to `COc1cc([C@@H]2c3cc4c(cc3[C@H](OC(=O)[C@H](Cc3ccccc3)NC(=O)OC(C)(C)C)[C@H]3COC(=O)[C@H]23)OCO4)cc(OC)c1OC`, the IC50 with A549 [1] turned out to be 30.2 nM; in the series on L02 [3] it was 78.4 nM; in the series on HepG2 [5], 87.1 nM; with MCF7 [6], 95.3 nM.

`COc1cc([C@@H]2c3cc4c(cc3[C@@H](O[C@@H]3O[C@@H]5CO[C@@H](C)O[C@H]5[C@H](O)[C@H]3O)[C@H]3COC(=O)[C@H]23)OCO4)cc(OC)c1O` [ETOPOSIDE]: the IC50 was 9470 nM with A549 [1], 3480 nM in the series with L02 [3], over 50000 nM in the series on HepG2 [5] and 4720 nM in the series with MCF7 [6]. In addition, the selectivity ratio in series [7] stood at 0.5.

Turning to `COc1cc([C@@H]2c3cc4c(cc3[C@H](OC(=O)[C@H](C)N)[C@H]3COC(=O)[C@H]23)OCO4)cc(OC)c1OC`, the IC50 was 13.6 nM in the series with A549 [1], 10.8 nM in the series on L02 [3], 17.8 nM with HepG2 [5] and 18.5 nM in the series on MCF7 [6].

For the compound `COc1cc([C@@H]2c3cc4c(cc3[C@H](OC(=O)CN)[C@H]3COC(=O)[C@H]23)OCO4)cc(OC)c1OC`, the IC50 in the series with A549 [1] was determined as 12.9 nM; in the series on L02 [3] it was 14.5 nM; with HepG2 [5], 17.5 nM; in the series on MCF7 [6], 7.2 nM. For the same compound, the entries for the “Ratio IC50” value with MCF7 [8] and with MCF7 [9] were 650 and 10, respectively.

`COc1cc([C@@H]2c3cc4c(cc3[C@H](OC(=O)[C@@H]3CCCN3C(=O)c3nc(C)c(C)nc3C)[C@H]3COC(=O)[C@H]23)OCO4)cc(OC)c1OC`: the IC50 in the series on A549 [1] was found to be 80.1 nM; in the series on L02 [3], 132 nM; in the series on HepG2 [5] it was 112 nM; in the series on MCF7 [6], 122 nM.

With `COc1cc([C@@H]2c3cc4c(cc3[C@H](OC(=O)[C@H](CC(C)C)NC(=O)c3nc(C)c(C)nc3C)[C@H]3COC(=O)[C@H]23)OCO4)cc(OC)c1OC`, the half-maximal inhibitory concentration (IC50) with A549 [1] is 62.4 nM; with L02 [3] it was 140 nM; in the series with HepG2 [5], 89.1 nM; with MCF7 [6] it was 127 nM.

On to `COc1cc([C@@H]2c3cc4c(cc3[C@H](OC(=O)[C@H](CC(C)C)NC(=O)OC(C)(C)C)[C@H]3COC(=O)[C@H]23)OCO4)cc(OC)c1OC`, for which the IC50 in the series with A549 [1] was 130 nM; in the series on L02 [3], 180 nM; in the series with HepG2 [5], 106 nM; in the series with MCF7 [6] it was 110 nM.

Consider `CNCC(=O)O[C@H]1c2cc3c(cc2[C@@H](c2cc(OC)c(OC)c(OC)c2)[C@H]2C(=O)OC[C@@H]21)OCO3`, for which the IC50 in the series on A549 [1] was 6.8 nM; in the series with L02 [3], 9.6 nM; in the series on HepG2 [5], 24.9 nM; with MCF7 [6], 17.5 nM. The Activity entry in the series on L02 [10], in the series on L02 [11] and with L02 [13] was “Toxic” throughout. Moreover, the outcome with A549 [12], with A549 [14] and in the series on A549 [15] was Active.

On to `COc1cc([C@@H]2c3cc4c(cc3[C@H](OC(=O)[C@@H]3CCCN3C(=O)OC(C)(C)C)[C@H]3COC(=O)[C@H]23)OCO4)cc(OC)c1OC`, for which the IC50 in the series on A549 [1] was 148 nM; in the series on L02 [3] it was 396 nM; in the series on HepG2 [5] it was 246 nM; with MCF7 [6], 277 nM.

For the compound `COc1cc([C@@H]2c3cc4c(cc3[C@H](OC(=O)CNC(=O)c3nc(C)c(C)nc3C)[C@H]3COC(=O)[C@H]23)OCO4)cc(OC)c1OC`, the half-maximal inhibitory concentration (IC50) was 9.3 nM in the series with A549 [1], 18.2 nM in the series with L02 [3], 11.7 nM with HepG2 [5] and 39.9 nM in the series on MCF7 [6]. Moreover, the “Ratio IC50” value was found to be 59 in the series with HepG2 [16] and 4200 with HepG2 [17].

Turning to `COc1cc([C@@H]2c3cc4c(cc3[C@H](OC(=O)[C@H](C)NC(=O)c3nc(C)c(C)nc3C)[C@H]3COC(=O)[C@H]23)OCO4)cc(OC)c1OC`, the IC50 with A549 [1] came to 15.8 nM; with L02 [3], 25.5 nM; with HepG2 [5], 26.9 nM; with MCF7 [6], 15.6 nM.

On to `COc1cc([C@@H]2c3cc4c(cc3[C@H](OC(=O)[C@@H](N)Cc3ccccc3)[C@H]3COC(=O)[C@H]23)OCO4)cc(OC)c1OC`, for which the IC50 was 3.8 nM in the series with A549 [1], 8.9 nM in the series on L02 [3], 27.3 nM in the series with HepG2 [5] and 15.6 nM in the series on MCF7 [6].

As to `COc1cc([C@@H]2c3cc4c(cc3[C@H](OC(=O)CN(C)C(=O)c3nc(C)c(C)nc3C)[C@H]3COC(=O)[C@H]23)OCO4)cc(OC)c1OC`, the IC50 in the series with A549 [1] worked out at 20.1 nM; with L02 [3], 15.8 nM; in the series on HepG2 [5], 58.3 nM; in the series on MCF7 [6] it was 66.4 nM.

Regarding `CC[C@H](C)[C@H](NC(=O)c1nc(C)c(C)nc1C)C(=O)O[C@H]1c2cc3c(cc2[C@@H](c2cc(OC)c(OC)c(OC)c2)[C@H]2C(=O)OC[C@@H]21)OCO3`, the IC50 in the series on A549 [1] was determined as 119 nM; in the series on L02 [3], 420 nM; with HepG2 [5] it was 348 nM; in the series with MCF7 [6], 988 nM.

As to `COc1cc([C@@H]2c3cc4c(cc3[C@H](OC(=O)[C@H](C)NC(=O)OC(C)(C)C)[C@H]3COC(=O)[C@H]23)OCO4)cc(OC)c1OC`, the IC50 in the series with A549 [1] was 17.3 nM; with L02 [3], 110 nM; in the series with HepG2 [5], 81.5 nM; with MCF7 [6], 107 nM.

As to `COc1cc([C@@H]2c3cc4c(cc3[C@H](OC(=O)[C@@H](N)CC(C)C)[C@H]3COC(=O)[C@H]23)OCO4)cc(OC)c1OC`, the IC50 was 14.7 nM in the series with A549 [1], 21.6 nM in the series on L02 [3], 27.1 nM in the series with HepG2 [5] and 8.6 nM with MCF7 [6].

As for `COc1cccc2c1C(=O)c1c(O)c3c(c(O)c1C2=O)C[C@@](O)(C(=O)CO)C[C@@H]3O[C@H]1C[C@H](N)[C@H](O)[C@H](C)O1` [DOXORUBICIN], the values for the IC50 in the series with A549 [1] and in the series on L02 [3] were 228 nM and 53.3 nM, respectively.

In the case of `COc1cc([C@@H]2c3cc4c(cc3[C@H](OC(=O)c3nc(C)c(C)nc3C)[C@H]3COC(=O)[C@H]23)OCO4)cc(OC)c1OC`, the 50% inhibitory concentration (IC50) is 76.9 nM in the series with A549 [1], 115 nM in the series with L02 [3], 57.8 nM in the series on HepG2 [5] and 63.5 nM in the series on MCF7 [6].

With `COc1cc([C@@H]2c3cc4c(cc3[C@H](OC(=O)[C@@H]3CCCN3)[C@H]3COC(=O)[C@H]23)OCO4)cc(OC)c1OC`, the IC50 in the series on A549 [1] is 2.8 nM; with L02 [3] it was 6.2 nM; in the series with HepG2 [5], 12.8 nM; in the series on MCF7 [6], 7.6 nM.
